How the values were obtained:
[1] = Acute toxicity (LD50), method of Litchfield et al.; settings: in vivo, ip; mouse, intraperitoneal route; read-out: DL-50 I.P. souris
Description: La toxicité a été déterminée chez la souris par voie intrapéritonéale selon la méthode de J.T. LITCHFIELD et al., J. Pharmacol. Exptl. Therap. (1949), 96, 99. La DL-50 I.P. souris des produits III et IV est de 750 mg/kg. Les produits de formule (I) ne sont donc pas toxiques.

patients = test: Clinical trial in hyperlipidemic and hypertensive patients; type: in vivo; settings: 21 days
Description: On a résumé enfin les résultats des essais cliniques qui ont été entrepris avec le composé III pendant 21 jours sur 65 patients (30 patients étant hyperlipidiques et les 35 autres patients souffrant d'hypertension artérielle), un lot de patients recevant 3 comprimés ou 3 glossettes par jour renfermant chacun 10 mg de composé III, un autre lot recevant une injection quotidienne de 10 mg de composé III. La tolérance de ce produit s'est révélée excellente puisque la condition de 51 patients (c'est-à-dire 78,4%) a été considérablement améliorée.

hématies = test: Erythrocyte deformability: filtration rate of erythrocyte suspension and plasma (Schmid-Schönbein technique) in hyperlipidemic monkeys; type: in vivo, singe; settings: monkeys on hyperlipidic diet, 20 mg/kg per os per day for 8 months, mean, 5 µ filter, 50 mm water pressure
Source text: La déformabilité des hématies a été mesurée selon la technique de SCHMID-SCHONBEIN et al., Blut (1973), 26, 369-379, par filtration (diamètre des pores du filtre : 5µ) sous une pression constante de 50 mm d'eau, d'une suspension d'hématies amenée à un hématocrite de 10% par dilution dans un plasma autologue. La phase de suspension est également filtrée selon la même technique. On peut apprécier ainsi l'intensité de certaines maladies car le taux de filtration de la suspension d'hématies et/ou de la phase de plasma est modifié par les maladies du métabolisme telles que le diabète et l'hyperlipidémie.
Le taux de filtration des hématies a été déterminé in vivo chez le singe rendu hyperlipidémique après absorption d'un régime gras. Les composés à tester ont été administrés per os à la dose quotidienne de 20 mg/kg pendant 8 mois à des lots de singes : un lot recevant un régime normal, un lot recevant un régime gras, les autres lots recevant le régime gras et un des composés à tester. Les résultats donnés dans le tableau ci-après sont exprimés sous forme d'une moyenne et représentent la vitesse de filtration des hématies ou du plasma en µl/s. La signification statistique des résultats est très bonne (p <( 0,001).

[2] = of 65 patients (30 hyperlipidemic, 35 arterial hypertension), 3 x 10 mg oral/sublingual or 10 mg injection per day

SMILES: C[C@@H]1O[C@@H](OC[C@H]2O[C@@H](Oc3cc4c(O)cc(O)cc4[o+]c3-c3ccc(O)c(O)c3)[C@H](O)[C@@H](O)[C@@H]2O)[C@H](O)[C@H](O)[C@H]1O [composé III, chlorurede 3-[6-0-(6-désoxy-α-L-mannopyranosyl)-β-D-glucopy-ranosyloxy]-3',4',5,7-tétrahydroxy-flavylium]
- LD50 [1]: 750 mg/kg
- tolérance (patients; 65 patients, 3 tablets or sublingual tablets of 10 mg per day, or one daily injection of 10 mg): excellente
- patients dont la condition a été considérablement améliorée (patients; [2]): 78,4%
- patients dont la condition a été considérablement améliorée (nombre) (patients; [2]): 51 patients
- Vitesse de filtration du plasma (hématies): 55,92 ± 4,78 µl/s
- Vitesse de filtration des hématies (hématies; hematocrit 10%): 43,97 ± 2,30 µl/s

SMILES: COc1cc(OC)c2cc(O[C@@H]3O[C@H](CO[C@@H]4O[C@@H](C)[C@H](O)[C@@H](O)[C@H]4O)[C@@H](O)[C@H](O)[C@H]3O)c(-c3ccc(OC)c(OC)c3)[o+]c2c1 [composé IV, chlorurede 3-[6-0-(6-désoxy-α-L-mannopyranosyl)-β-D-glucopyranosyloxy]-3',4', 5,7-tétraméthoxy-flavylium]
- LD50 [1]: 750 mg/kg

From patent EP0019524A1, “Process for preparing flavilium derivatives, products obtained by the processus and their therapeutical application” (SOCIETE DE RECHERCHES INDUSTRIELLES SORI, priority 1979, dated 1980)
